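Protocol summary: plate cells (96-well), add compound at 5 concentrations, incubate 48 h, interpolate endpoints linearly. GI50 marks 50% less growth.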 Calls of active or inactive are those of the source. Rule as the data show it: active = GI50 up to about 1.1 µM and inactive = higher.

Test systems include 786-0; CCRF-CEM; HCT-116; HCT-15; HT-29; IGROV-1; K562; LOX IMVI; M14; MDA-MB-435; MDA-N; OVCAR-4; OVCAR-5; SF-539; SK-MEL-28; SK-MEL-2; SNB-75; SW-620; U-251.
Holding throughout (experiment): growth of human tumour cells (NCI), 48 h

As for `Cc1sc(NC=C2C(=O)CC(C)(C)CC2=O)nc1-c1ccccc1`, the GI50 in the assay with 786-0 is > 100 µM (inactive); in the assay with CCRF-CEM it was 72.6 µM (inactive); in the assay on HCT-116 it was > 100 µM (inactive); with HCT-15, more than 100 µM; in the assay with HT-29, > 100 µM (inactive); in the assay on IGROV-1, > 100 µM (inactive). In addition, the GI50 with K562, in the assay on LOX IMVI, in the assay with M14, with MDA-MB-435, with MDA-N and with OVCAR-4 was > 100 µM (inactive) throughout. Besides, the GI50 in the assay with OVCAR-5, with SF-539, in the assay with SK-MEL-28, in the assay on SK-MEL-2, in the assay on SNB-75 and in the assay with SW-620 was > 100 µM (inactive) throughout. For the same molecule, the GI50 in the assay on U-251 is > 100 µM (inactive).
For `CN(COC(=O)c1ccccc1)c1nc(N(C)COC(=O)c2ccccc2)nc(N(C)COC(=O)c2ccccc2)n1`, the GI50 in the assay on 786-0 was 11.4 µM (inactive); with CCRF-CEM, > 100 µM (inactive); in the assay with HCT-116, 44.5 µM (inactive); with HCT-15, more than 100 µM; in the assay on HT-29 it was > 100 µM (inactive); with IGROV-1, 28.8 µM (inactive). Also, the GI50 with K562 was > 27.4 µM (inactive); with LOX IMVI it was > 100 µM (inactive); in the assay with M14 it was > 86.3 µM (inactive); in the assay with MDA-MB-435, > 100 µM (inactive); in the assay with MDA-N it was > 100 µM (inactive); in the assay on OVCAR-4, 47.5 µM (inactive). Further, the GI50 is > 100 µM (inactive) in the assay with OVCAR-5; 12.2 µM (inactive) in the assay on SF-539; > 100 µM (inactive) in the assay on SK-MEL-28; > 94.6 µM (inactive) in the assay with SNB-75; > 100 µM (inactive) with SW-620; 20.2 µM (inactive) in the assay on U-251.
As to `CN1C(=O)C(/C=N/NC(=O)c2cccnc2)C(N)N(C)C1=O` (stereo unspecified), the GI50 with 786-0 was > 100 µM (inactive); in the assay on CCRF-CEM, > 100 µM (inactive); with HCT-116, > 100 µM (inactive); in the assay with HCT-15, more than 100 µM; in the assay on HT-29 it was > 100 µM (inactive); with IGROV-1, > 100 µM (inactive). Further, the GI50 in the assay on K562, in the assay with M14, with MDA-MB-435, in the assay on MDA-N, in the assay on OVCAR-4 and in the assay with OVCAR-5 was > 100 µM (inactive) each time. The GI50 in the assay with SK-MEL-28 was > 100 µM (inactive); in the assay with SK-MEL-2, 35.3 µM (inactive); with SNB-75 it was > 100 µM (inactive); in the assay on SW-620 it was > 100 µM (inactive); in the assay on U-251, > 100 µM (inactive).
With `Cc1ccc(NC(=S)NNC(=O)c2cc(-c3ccccc3)nc3ccccc23)cc1`, the GI50 with 786-0 is 13 µM (inactive); with HCT-116, 8.59 µM (inactive); with HCT-15, 7.13 µM; with HT-29 it was 24 µM (inactive); in the assay with IGROV-1, 15.2 µM (inactive); in the assay on K562, 13.4 µM (inactive). Besides, the GI50 is 11.9 µM (inactive) in the assay on M14; 2.81 µM (inactive) in the assay with MDA-MB-435; 4.26 µM (inactive) with MDA-N; 17.9 µM (inactive) in the assay with OVCAR-4; 15.4 µM (inactive) in the assay with OVCAR-5; 15.7 µM (inactive) in the assay with SF-539. The GI50 in the assay on SK-MEL-28 was 5.96 µM (inactive); in the assay on SK-MEL-2, 10.3 µM (inactive); in the assay on SNB-75 it was 12.2 µM (inactive); in the assay on SW-620, 10.4 µM (inactive); in the assay with U-251 it was 5.68 µM (inactive).

For the origin of these results see ChEMBL document CHEMBL1201862, “PubChem BioAssay data set” (2004).
